Experimental data from PubChem BioAssay (NCI).
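Briefly, cells in 96-well plates were exposed to five compound concentrations for 48 h, and endpoints were estimated by linear interpolation. GI50: concentration for 50% inhibition of growth. TGI is the concentration that stops growth completely.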

Columns and labels:
Assay in all cases: NCI anticancer screen, dose series, 48 h
U251 CNS = system: U251 CNS
MDA-MB-435 = system: MDA-MB-435
MOLT-4 leukemia = system: MOLT-4 leukemia
HS 578T breast = system: HS 578T breast
A549 NSCLC = system: A549 NSCLC
NCI-H522 lung = system: NCI-H522 lung
LOX IMVI melanoma = system: LOX IMVI melanoma
COLO 205 colon = system: COLO 205 colon
OVCAR-5 ovarian = system: OVCAR-5 ovarian
OVCAR-3 ovarian = system: OVCAR-3 ovarian

| Compound | TGI (U251 CNS) [µM] | TGI (MDA-MB-435) [µM] | TGI (MOLT-4 leukemia) [µM] | TGI (HS 578T breast) [µM] | TGI (A549 NSCLC) [µM] | TGI (NCI-H522 lung) [µM] | TGI (LOX IMVI melanoma) [µM] | TGI (COLO 205 colon) [µM] | TGI (OVCAR-5 ovarian) [µM] | TGI (OVCAR-3 ovarian) [µM] | GI50 (U251 CNS) [µM] | GI50 (MDA-MB-435) [µM] | GI50 (MOLT-4 leukemia) [µM] | GI50 (HS 578T breast) [µM] | GI50 (A549 NSCLC) [µM] | GI50 (NCI-H522 lung) [µM] | GI50 (LOX IMVI melanoma) [µM] | GI50 (COLO 205 colon) [µM] | GI50 (OVCAR-5 ovarian) [µM] | GI50 (OVCAR-3 ovarian) [µM] |
| --- | --- | --- | --- | --- | --- | --- | --- | --- | --- | --- | --- | --- | --- | --- | --- | --- | --- | --- | --- | --- |
| COc1ccc2c(c1)N(CCC1CCCCN1C)c1ccccc1S2 (stereo not given) | 23.8 | 20.6 | 17.2 | 26.5 | 27.8 | 28 | 25.9 | 30.9 | 31.2 | 31.4 | – | – | – | – | – | – | – | – | – | – |
| Cc1cc2c(=O)cc(-c3ccc(C(=O)O)cc3)oc2c(C(=O)O)c1C | > 100 | – | > 100 | – | > 100 | > 100 | > 100 | > 100 | > 100 | > 100 | – | – | – | – | – | – | – | – | – | – |
| CCOC(=O)c1c2c(n3cccc(F)c13)C(=O)c1ncccc1C2=O | 1.39 | 10.7 | 23.7 | 25.6 | 1.67 | 3.77 | 1.92 | 7.2 | 18.7 | 2.42 | 0.0411 | 0.541 | 3.06 | 0.0362 | 0.217 | 0.394 | 0.0932 | 1.27 | 1.16 | 0.22 |
| CC1=C(C(=O)Nc2ccc(Cl)c(Cl)c2)C(c2cccc(O)c2)NC(=S)N1 (stereo not given) | 18.1 | 18.5 | > 50 | 24.9 | – | 25.2 | 13.8 | 14.6 | > 50 | 12.5 | 8.82 | 9.16 | 16.8 | 9.5 | – | 12 | 7.09 | 7.09 | > 50 | 5.69 |
| CSc1ccc2c(c1)C(=O)c1c-2n(CCCN=[N+]=[N-])c(=O)c2cc([N+](=O)[O-])ccc12 | > 100 | > 100 | 6.38 | > 100 | > 100 | > 100 | > 100 | > 100 | > 100 | > 89.5 | 1.1 | 14.1 | 0.371 | > 61.1 | 3.25 | 6.01 | 1.22 | > 23.7 | > 76.6 | 8.87 |
| Cc1ccc(C2CC(c3cccc(Nc4ccncc4)c3)=NN2c2ccc(Cl)cc2)cc1 (stereo not given) | 3.64 | 2.97 | 4.12 | – | 3.29 | 3.67 | 2.97 | 3.6 | 2.99 | 3.06 | 1.85 | 1.6 | 1.85 | – | 1.73 | 1.78 | 1.62 | 1.73 | 1.61 | 1.69 |
| COC(=O)c1cc(O)ccc1NC(=O)c1ccc(O)cc1 | > 100 | – | > 100 | – | > 100 | > 100 | > 100 | > 100 | > 100 | > 100 | – | – | – | – | – | – | – | – | – | – |
| NS(=O)(=O)c1ccc(NCc2cnc3ccccc3c2)cc1 | > 100 | > 100 | > 100 | > 100 | > 100 | > 100 | – | > 100 | > 100 | > 100 | – | – | – | – | – | – | – | – | – | – |
| O=C(Cc1nc2ccccc2s1)NC12CC3CC(CC(C3)C1)C2 | > 100 | – | > 100 | – | > 100 | > 100 | > 100 | – | – | – | – | – | – | – | – | – | – | – | – | – |
| Cc1ccccc1C(C#N)/C(=N/NC(=O)C(=O)NN)C(=O)Nc1cccc(C(F)(F)F)c1 (stereo not given) | > 100 | – | > 100 | – | > 100 | > 100 | – | > 100 | > 100 | > 100 | – | – | – | – | – | – | – | – | – | – |
| O=CN/C=C/c1ccccc1O | > 100 | – | > 100 | – | > 100 | > 100 | > 100 | > 100 | > 100 | > 100 | – | – | – | – | – | – | – | – | – | – |
| O=C(O)C#Cc1ccc([N+](=O)[O-])cc1 | > 100 | > 100 | > 100 | > 100 | > 100 | – | > 100 | > 100 | > 100 | > 100 | – | – | – | – | – | – | – | – | – | – |
| CCC1=C[C@H]2CN(CCc3c([nH]c4ccccc34)[C@@](C(=O)OC)(c3cc4c(cc3OC)N(C)[C@H]3[C@@](O)(C(=O)OC)[C@H](OC(C)=O)[C@]5(CC)[C@@H]6C[C@@H]6CN6CC[C@]43[C@@H]65)C2)C1 | 3.22 | 0.0211 | > 25 | 4.16 | 9.56 | 0.302 | 3.4 | – | 13.1 | 2.59 | 0.0309 | 0.00603 | 0.0737 | 0.053 | 0.0396 | 0.011 | 0.0229 | – | 0.126 | 0.0105 |
| N#Cc1ccccc1/C=N/O | > 100 | – | > 100 | – | > 100 | > 100 | > 100 | > 74.9 | > 100 | > 100 | – | – | – | – | – | – | – | – | – | – |
| O=C1CSc2ccncc2N1 | > 100 | – | > 100 | – | > 100 | – | > 100 | > 100 | > 100 | > 100 | – | – | – | – | – | – | – | – | – | – |
| COc1cc([C@@H]2c3cc4c(cc3[C@@H](NC(=O)c3ccc([N+](=O)[O-])cc3)C3COC(=O)[C@@H]32)OCO4)cc(OC)c1O (stereo not given in full) | 1.21 | – | 1.31 | – | 1.53 | 2.09 | 5.86 | 10.4 | 76.2 | 4.81 | – | – | – | – | – | – | – | – | – | – |
| Cn1c(C2CC(C)(C)c3c2c2ccccc2n3C)cc2ccccc21 (stereo not given) | > 304 | – | > 304 | – | > 304 | > 304 | > 304 | > 304 | > 304 | > 304 | – | – | – | – | – | – | – | – | – | – |
| C=C1CCC2C(C)(CO)C(O)CCC2(C)C1CC(O)C1=CCOC1=O (stereo not given) | 50.7 | – | > 100 | – | > 100 | 20.3 | > 100 | > 100 | > 100 | 58.9 | – | – | – | – | – | – | – | – | – | – |
| O=C(O)c1cn(C2CC2)c2cc(N3CCN(C(=O)Nc4nc(-c5ccc(Cl)cc5)cs4)CC3)c(F)cc2c1=O | 16.1 | > 100 | – | 66.1 | > 100 | 9.14 | > 100 | > 100 | > 100 | 34.6 | 1.38 | 2.75 | – | 1.91 | 2.71 | 2.55 | 0.567 | 3.32 | 3.4 | 2.38 |
